Laboratory results taken from US20240124501A1, “VANADIUM COMPOUNDS AND METHODS OF MAKING AND USING THEREOF” (priority 2022, published 2024).
Where “and” joins values, the source holds several entries; their conditions need not be identical. Identical values can stand only once. Like-named read-outs stand apart in the source and are kept apart here.

How the values were obtained:
[1] = test system: T98 g cells (human glioblastoma multiforme); assay: IC50 for 72 h treatments with fresh vanadium(V) compounds in T98 g cells (Example 7); assay type: cell-based; settings: 72 h treatment, each measurement reported, read-out: IC50 Value(s) (converted)
Method: (§1) Cell Culture and Growth Conditions. The well-established human glioblastoma multiforme cell line (T98 g) and human foreskin fibroblast (HFF-1) cell lines were purchased from American Type Culture Collection (ATCC, cat. no. CRL-1690 and SCRC-1041). Due to their limited life span in culture, HFF-1 cells were used at passages four to six. The cells were cultured in Advanced DMEM (Thermo Fisher Scientific cat. no. 12491-015), supplemented with L-glutamine (2.0 mM), antibiotic-antimycotic mixture (100 U mL^−1 penicillin, […] streptomycin, and […] amphotericin B), and fetal calf serum (FCS; heat-inactivated; 2% vol). For proliferation and cytotoxicity experiments, cells were seeded in 96-well plates at an initial density of 1.5×10^3 viable cells per well in 100 μL medium and left to attach overnight.
(§2) Freshly prepared stock solutions of V(V) complexes (10 mM in DMSO) were used for cell assays. […] Stock solutions of the treatment complexes were diluted with fully supplemented cell culture media to the required final concentrations, and the resultant media were either added to the cells within 1 min (fresh solutions) or left in cell culture incubator (310 K, 5% CO2) for 24 h prior to the cell treatments (aged solutions).
(§3) Each treatment included six replicate wells with cells and two background wells without cells that contained the same components. After the addition of treatment complexes, the plates were incubated for 72 h at 310 K and 5% CO2, then MTT reagent [1-(4,5-dimethylthiazol-2-yl)-3,5-diphenylformazan, Sigma M5655] was added (50 μL per well of freshly prepared 2.0 mg/mL solution in complete medium), and incubation was continued for 4-6 h. After that, the medium was removed, the blue formazan crystals were dissolved in 0.10 mL per well of DMSO, and the absorbance at 600 nm was measured using a Victor V3 plate reader. Typically, the treatment complexes were applied in a series of nine two-fold dilutions, starting from (100±20) M V, plus the vehicle control. Exact V concentrations in the assays were verified by ICP-MS measurements using samples of cell culture media and used in the calculations of the IC50 values. Fitting of the experimental data and calculations of the IC50 values were performed using Origin 6.1 software (Microcal Origin, 1999). For all the cell assays, consistent results were obtained in at least two independent experiments using different passages of cells and varying stock solutions of the treatment complexes.
In cases where multiple measurements were performed, the value determined for each measurement are reported.

[2] = test system: Mycobacterium smegmatis (M. smeg); assay: Growth inhibition of M. smeg (MIC/IC50 measurement); assay type: cell-based, Mycobacterium smegmatis mc^2 155; settings: Mycolicibacterium smegmatis; M. smeg in 7H9 media, 24 h at 37° C., OD600; mean and SD of triplicate
Method: Cell Culture and Growth Conditions. M. smeg was cultured in Middlebrook 7H9 medium (Ref. no. 271310; Difco) supplemented with 10% OAD (oleic acid, albumin, dextrose), 0.2% (v/v) glycerol, and […], and incubated with shaking for 24 h at 37° C. M. smeg was grown to a mid-logarithmic growth phase assessed via spectrophotometry and occurred at an optical density of 0.6 at 600 nm (OD600). In some experiments where M. smeg was treated with vanadium complexes, the cell culture supernatant was collected for ^51V NMR studies.
Minimum Inhibitory Concentration (MIC) Measurements. The inhibitory activity of the tested compounds was determined by measuring the lowest concentration that caused bacterial growth inhibition of 50% (IC50). M. smeg was grown to the mid-log phase of 0.6-0.8 at OD600. The final concentrations of the compounds used in these studies were obtained using serial dilutions to a final concentration range of 2 to 0.0039 mM and placed with M. smeg in 7H9 media into a 96-well plate. Plates were incubated for 24 h at 37° C. A Bio-Rad Benchmark Reader (Bio-Rad Laboratories: Hercules, CA, USA) was used to check the cell viability at OD600 at appropriate times. IC50 was determined to be the lowest concentration of complexes that inhibited M. smeg growth by 50%.
Statistical Analysis. For each treatment, data were represented as the mean and standard deviation of the IC50 from triplicate measurements. The IC50 was calculated using GraFit 5 data analysis software (version 5.0.13). • Chemistry
Preparation of Stock Solutions for Cell Culture Experiments. A 20 mM stock solution of each respective V-complex and its free ligands was prepared in DMSO and diluted with 7H9 media to a concentration of 2.0 mM for biological studies.

[3] = test system: HFF-1 (non-cancer human fibroblasts); assay: Anti-proliferative activity, MTT assay, HFF-1 cells (Example 5)
[4] = test system: T98g (human glioblastoma cells); assay: Anti-proliferative activity, MTT assay, T98g cells (Example 5); assay type: cell-based; settings: read-out: IC50 (T98g), condition (B)
T98g cells = assay: V uptake by T98g cells (ICPMS); assay type: cell-based, human; settings: 30 min treatment with 100 μM of freshly diluted V complexes
Method: For V uptake experiments, T98 g cells were grown to ˜80% confluence in 12-well plates (three replicates per treatment). […] After that, V-containing media were removed, the cell layers were washed twice with phosphate buffered saline (PBS), detached with TrypLE solution (Thermo Fisher Scientific Cat. No. 12605028), pelleted, and washed again with PBS. Detachment and washing of cell pellets were used to remove V that was absorbed on the culture plates and on the cell surface. Cell numbers in each pellet were counted with a Countess automatic counter, typical numbers were (5±1)×10^5 cells/well, cell viability was >95% (Trypan blue staining). Cell pellets were digested with 0.20 mL of 65% HNO3 (trace pure, Merck 225711) for 3 d at 295 K, then diluted with Milli-Q water to 1.0 mL for ICPMS analysis. The analysis was performed with a Perkin-Elmer Nexion 350× spectrometer, using a standard V(IV) solution (Choice Analytical, Australia) and 193Ir peak as an internal standard. The measurements were performed in kinetic energy discrimination (KED) mode to eliminate the interference of [^35Cl^16O]^+ ions with the determination of ^51V^+. Cellular V concentrations were expressed in atoms V per cell. For all the cell assays, consistent results were obtained in at least two independent experiments, using different passages of cells and different stock solutions of the treatment compounds.

[5] = test system: HFF-1 (human foreskin fibroblasts); assay: Cytotoxicity, MTT assay, HFF-1 cells (Example 4); assay type: cell-based; settings: 72 h treatment; mixed with medium ~1 min before treatment; read-out: IC50 HFF-1 (fresh)
Method: as §1, with “µL” for “μL”
Freshly prepared stock solutions of V(V) complexes (10 mM in DMSO) were used for cell assays. […]
Each treatment included six replicate wells with cells and two background wells without cells that contained the same components. […] After that, the medium was removed, the blue formazan crystals were dissolved in 0.10 mL per well of DMSO, and the absorbance at 600 nm was measured using a Victor V3 plate reader. […]

[6] = test system: T98g cells (human glioblastoma multiforme); assay: Antiproliferative activity, MTT assay, T98g cells (Example 4); assay type: cell-based; settings: 72 h treatment
Method: as §1, with “µL” for “μL”
as §2
as §3, with “(100±20) μM” for “(100±20) M”

[7] = complexes mixed with cell culture medium ~1 min (295K) before treatment, read-out: IC50 T98g (fresh)
[8] = pre-incubated with cell culture medium 24 h at 310K, 5% CO2, read-out: IC50 T98g (aged)

SMILES	IC50 [1]	IC50 [2] [µM]	further results
CCOc1cccc2c1[O][V]1(=[O])([O]c3cc(C(C)(C)C)cc(C(C)(C)C)c3[O]1)[N](CCO)CCN=C2	2.4 ± 0.3 µM	–	–
CCOc1cccc2c1[O][V]1(=[O])([O]c3cc(C45CC6CC(CC(C6)C4)C5)cc(C(C)(C)C)c3[O]1)[N](CCO)CCN=C2	2.1 ± 0.3 µM	–	–
CCOc1cccc2c1[O][V]1(=[O])([O]c3cc(C45CC6CC(CC(C6)C4)C5)cc(C45CC6CC(CC(C6)C4)C5)c3[O]1)[N](CCO)CCN=C2	3.3 ± 0.4 µM	–	–
CCOc1cccc2c1[O][V]1(=[O])([O]c3cc(C45CC6CC(CC(C6)C4)C5)cc(C)c3[O]1)[N](CCO)CCN=C2	14 ± 2 µM	–	–
CC(C)(C)c1cc2c(c(C34CC5CC(CC(C5)C3)C4)c1)[O][V]1(=[O])([O]c3ccccc3C=NCC[N]1CCO)[O]2	9.3 ± 2.1 µM	–	–
CC(C)(C)c1cc2c(c(C34CC5CC(CC(C5)C3)C4)c1)[O][V]1(=[O])([O]c3ccc(Cl)cc3C=NCC[N]1CCO)[O]2	3.4 ± 0.2 µM	–	–
[O]=[V]12([O]c3ccc(Cl)cc3C=NCC[N]1CCO)[O]c1cc(C34CC5CC(CC(C5)C3)C4)cc(C34CC5CC(CC(C5)C3)C4)c1[O]2	11 ± 1 µM	–	–
CC(C)(C)c1cccc2c1[O][V]1(=[O])([O]c3cc(C45CC6CC(CC(C6)C4)C5)cc(C45CC6CC(CC(C6)C4)C5)c3[O]1)[N](CCO)CCN=C2	5.3 ± 1.6 µM	–	–
CC(C)(C)c1cc2c(c(C(C)(C)C)c1)[O][V]1(=[O])([O]c3cc4ccc(=O)oc4cc3[O]1)[N](CCO)CCN=C2	4.2 µM and 6.9 µM	–	–
N#Cc1ccc(O)c(O)c1 [H2CN, 3,4-dihydroxybenzonitrile]	–	447 ± 0.04	–
O=c1ccc2cc(O)c(O)cc2o1 [H2Coum, 6,7-dihydroxycoumarin]	–	506 ± 0.28	–
Oc1ccccc1O [H2cat, catechol]	–	109 ± 0.05	–
CC(C)(C)c1cc(O)c(O)c(C(C)(C)C)c1 [H2dtb, 3,5-di-tert-butylcatechol]	–	241 ± 0.07	IC50 ([3]; Homo sapiens, HFF-1, read-out: IC50 (HFF-1), condition (B)): 24 ± 2 µM; IC50 [4]: 15 ± 3 µM
Oc1c(O)c(Br)c(Br)c(Br)c1Br [H2tbc, tetrabromocatechol]	–	416 ± 0.19	–
COc1cccc(O)c1O [H23OMet, 3-methoxy catechol]	–	262 ± 0.15	–
O=[N+]([O-])c1ccc(O)c(O)c1 [H24NO2, 4-nitrocatechol]	–	610 ± 0.05	–
[Na+].[Na+].[Na+].[O]=[V]([O-])([O-])[O-] [Na3VO4]	–	–	Uptake (T98g) of V (T98g cells): (3.3 ± 0.8) × 10^7 atoms per cell; viability of HFF-1 cells compared with the vehicle control ([3]; subtoxic concentrations, not seen in T98g): 120-140%; IC50 [5]: 23 ± 3 µM; IC50 [6, 7]: ~40 µM and 26 µM; IC50 [6, 8]: 24 ± 4 µM
N.N.[Cl][Pt][Cl] [cisplatin]	–	–	IC50 [5]: 45 ± 4 µM; IC50 [6, 7]: 33 ± 1 µM; IC50 [6, 8]: > 50 µM
